US20260022142A1, “MACROCYCLIC IMMUNOMODULATORS” (Bristol-Myers Squibb Company, priority 2022, published 2026)
Bridge positions count the residues as written; N and C are the ends. Square brackets hold non-standard residues; d marks the D form. Peptide text beside a SMILES is read from it. * marks the point of attachment. ξ: configuration not given here. Phe(3-CF3) = N[C@@H](Cc1cccc(C(F)(F)F)c1)C(=O)O; Phe(4-CONH2) = NC(=O)c1ccc(C[C@H](N)C(=O)O)cc1; Phe(4-COOH) = N[C@@H](Cc1ccc(C(=O)O)cc1)C(=O)O; Phe(2,4-F2) = N[C@@H](Cc1ccc(F)cc1F)C(=O)O; Bip = N[C@@H](Cc1ccc(-c2ccccc2)cc1)C(=O)O; Phe(3-Me) = Cc1cccc(C[C@H](N)C(=O)O)c1; NH(CH2)12COOH = O=C(O)CCCCCCCCCCCCN*; Val(3-OH) = CC(C)(O)[C@H](N)C(=O)O; Cha = N[C@@H](CC1CCCCC1)C(=O)O; Cit = NC(=O)NCCC[C@H](N)C(=O)O; Thr(3ξ) = CC(O)[C@H](N)C(=O)O; Carboxymethyl = O=C(O)C*; Nle = CCCC[C@H](N)C(=O)O; Orn = NCCC[C@H](N)C(=O)O; Aun = NCCCCCCCCCCC(=O)O; Dab = NCC[C@H](N)C(=O)O; Dap = NC[C@H](N)C(=O)O; AEEA = NCCOCCOCC(=O)O; Piv = CC(C)(C)C(=O)*

biological target: T1, PD-1/PD-L1 interaction (PE-labeled human PD-L1-Ig binding to Jurkat cell line over-expressing human PD-1) (Homo sapiens, UniProt Q15116); test: Jurkat-PD-1 Cell Binding High-Content Screening Assay (CBA); assay type: cell-based; conditions: Jurkat cell line over-expressing human PD-1; PE-labeled PD-L1-Ig 20 nM final; read-out: Jurkat hPD1-PDL1 IC50
T1 construct: expressed in transfected cells; host or cells: Jurkat
Method in brief: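 Human PD-L1-Ig carrying a covalent PE label on its Ig tag serves as the probe, applied at 20 nM final to compound-treated (2 h, 37° C) Jurkat-hPD-1 cells in medium with 10% fetal calf serum. After one hour, fixation and nuclear staining precede high-content image analysis.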

T1 sequence (Q15116 25-288): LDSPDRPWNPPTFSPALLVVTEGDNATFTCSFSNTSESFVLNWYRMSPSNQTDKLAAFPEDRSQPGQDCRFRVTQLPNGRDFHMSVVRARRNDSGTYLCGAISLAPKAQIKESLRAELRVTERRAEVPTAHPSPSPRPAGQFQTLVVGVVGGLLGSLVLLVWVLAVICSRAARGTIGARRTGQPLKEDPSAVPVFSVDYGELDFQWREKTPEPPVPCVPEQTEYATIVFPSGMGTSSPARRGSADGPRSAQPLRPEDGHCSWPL

Row | IC50 [nM] | SMILES
1 | 74.2 | Cc1cccc(C[C@@H]2NC(=O)[C@H](CC(=O)O)NC(=O)[C@H](Cc3ccc(OCC(=O)O)cc3)NC(=O)[C@H](CN)NC(=O)CSC[C@@H](C(=O)N[C@@H](CCN)C(=O)NCCOCCOCC(=O)NCCCCCCCCCCC(=O)O)NC(=O)[C@H](CCC(=O)O)NC(=O)[C@H](C(C)C)NC(=O)[C@H](Cc3ccc(F)cc3F)NC(=O)[C@H](CCN)NC(=O)[C@@H](CC(C)C)NC(=O)[C@H](CCCN)NC(=O)[C@H](Cc3ccc(OCC(=O)O)cc3)NC(=O)[C@H](Cc3ccc(-c4ccccc4)cc3)NC(=O)[C@H](Cc3ccc(C(=O)O)cc3)NC2=O)c1 [Compound 1272] ({CH2CO}-[Dap]Y(Carboxymethyl)D[Phe(3-Me)][Phe(4-COOH)][Bip]Y(Carboxymethyl)[Orn][dL][Dab][Phe(2,4-F2)]VEC[Dab][AEEA][Aun]-OH; thioether N-14)
2 | 21.6 | Cc1cccc(C[C@@H]2NC(=O)[C@H](CC(=O)O)NC(=O)[C@H](Cc3ccc(OCC(=O)O)cc3)NC(=O)[C@H](CN)NC(=O)CSC[C@@H](C(=O)N[C@@H](CCN)C(=O)NCCOCCOCC(=O)NCCCCCCCCCCC(=O)O)NC(=O)[C@H](CCCN)NC(=O)[C@H](Cc3ccc(O)cc3)NC(=O)[C@H](CC3CCCCC3)NC(=O)[C@H](CCN)NC(=O)[C@@H](CC(C)C)NC(=O)[C@H](CCCN)NC(=O)[C@H](CCCNC(N)=O)NC(=O)[C@H](Cc3ccc(-c4ccccc4)cc3)NC(=O)[C@H](Cc3ccc(O)cc3)NC2=O)c1 [Compound 2572] ({CH2CO}-[Dap]Y(Carboxymethyl)D[Phe(3-Me)]Y[Bip][Cit][Orn][dL][Dab][Cha]Y[Orn]C[Dab][AEEA][Aun]-OH; thioether N-14)
3 | 19.7 | CCCC[C@@H]1NC(=O)[C@H](C(C)C)NC(=O)[C@H](CC2CCCCC2)NC(=O)[C@H](CCN)NC(=O)[C@@H](CC(C)C)NC(=O)[C@H](CCCN)NC(=O)[C@H](Cc2ccc(OCC(=O)O)cc2)NC(=O)[C@H](Cc2ccc(-c3ccccc3)cc2)NC(=O)[C@H](Cc2ccc(OCC(=O)O)cc2)NC(=O)[C@H](Cc2cccc(C(F)(F)F)c2)NC(=O)[C@H](CC(=O)O)NC(=O)[C@H](Cc2ccc(C(=O)O)cc2)NC(=O)[C@H](CCN)NC(=O)CSC[C@@H](C(=O)N[C@@H](CCN)C(=O)NCCCCCCCCCCC(=O)O)NC1=O [Compound 3825] ({CH2CO}-[Dab][Phe(4-COOH)]D[Phe(3-CF3)]Y(Carboxymethyl)[Bip]Y(Carboxymethyl)[Orn][dL][Dab][Cha]V[Nle]C[Dab][Aun]-OH; thioether N-14)
4 | 26.3 | CC(=O)NCCCC[C@@H]1NC(=O)CSC[C@@H](C(=O)N[C@@H](CCN)C(=O)NCCCCCCCCCCC(=O)O)NC(=O)[C@H](C(C)O)NC(=O)[C@H](C(C)C)NC(=O)[C@H](CC2CCCCC2)NC(=O)[C@H](CCN)NC(=O)[C@@H](CC(C)C)NC(=O)[C@H](CCCN)NC(=O)[C@H](CCCNC(N)=O)NC(=O)[C@H](Cc2ccc(-c3ccccc3)cc2)NC(=O)[C@H](C(C)C)NC(=O)[C@H](Cc2cccc(C)c2)NC(=O)[C@H](CC(=O)O)NC(=O)[C@H](Cc2ccc(OCC(=O)O)cc2)NC1=O (stereo partly drawn) [Compound 3538] ({CH2CO}-K(Ac)Y(Carboxymethyl)D[Phe(3-Me)]V[Bip][Cit][Orn][dL][Dab][Cha]V[Thr(3ξ)]C[Dab][Aun]-OH; thioether N-14)
5 | 24.8 | Cc1cccc(C[C@@H]2NC(=O)[C@H](CC(=O)O)NC(=O)[C@H](Cc3ccc(OCC(=O)O)cc3)NC(=O)[C@H](CCCNC(=N)N)NC(=O)CSC[C@@H](C(=O)N[C@@H](CCCCN)C(=O)NCCCCCCCCCCC(=O)O)NC(=O)[C@H](CCCCN)NC(=O)[C@H](C(C)C)NC(=O)[C@H](CC3CCCCC3)NC(=O)[C@H](CCN)NC(=O)[C@@H](CC(C)C)NC(=O)[C@H](CCCN)NC(=O)[C@H](CCCNC(N)=O)NC(=O)[C@H](Cc3ccc(-c4ccccc4)cc3)NC(=O)[C@H](C(C)C)NC2=O)c1 [Compound 3470] ({CH2CO}-RY(Carboxymethyl)D[Phe(3-Me)]V[Bip][Cit][Orn][dL][Dab][Cha]VKCK[Aun]-OH; thioether N-14)
6 | 2.6 | CCCC[C@@H]1NC(=O)CSC[C@@H](C(=O)N[C@@H](CCN)C(=O)NCCOCCOCC(=O)NCCOCCOCC(=O)NCCCCCCCCCCCCC(=O)O)NC(=O)[C@H](CO)NC(=O)[C@H](C(C)(C)O)NC(=O)[C@H](CC2CCCCC2)NC(=O)[C@H](CCN)NC(=O)[C@@H](CC(C)C)NC(=O)[C@H](CCCN)NC(=O)[C@H](Cc2ccc(C(=O)O)cc2)NC(=O)[C@H](Cc2ccc(-c3ccccc3)cc2)NC(=O)[C@H](Cc2ccc(C(=O)O)cc2)NC(=O)[C@H](Cc2cccc(C)c2)NC(=O)[C@H](CC(=O)O)NC(=O)[C@H](Cc2ccc(OCC(=O)O)cc2)NC1=O [Compound 2891] ({CH2CO}-[Nle]Y(Carboxymethyl)D[Phe(3-Me)][Phe(4-COOH)][Bip][Phe(4-COOH)][Orn][dL][Dab][Cha][Val(3-OH)]SC[Dab][AEEA][AEEA]-{NH(CH2)12COOH}; thioether N-14)
7 | 21.7 | Cc1cccc(C[C@@H]2NC(=O)[C@H](CC(=O)O)NC(=O)[C@H](Cc3ccc(OCC(=O)O)cc3)NC(=O)[C@H](CCNC(=O)C(C)(C)C)NC(=O)CSC[C@@H](C(=O)N[C@@H](CCN)C(=O)NCCCCCCCCCCC(=O)O)NC(=O)[C@H](C(C)O)NC(=O)[C@H](C(C)C)NC(=O)[C@H](CC3CCCCC3)NC(=O)[C@H](CCN)NC(=O)[C@@H](CC(C)C)NC(=O)[C@H](CCCN)NC(=O)[C@H](CCCNC(N)=O)NC(=O)[C@H](Cc3ccc(-c4ccccc4)cc3)NC(=O)[C@H](C(C)C)NC2=O)c1 (stereo partly drawn) [Compound 3511] ({CH2CO}-[Dab](Piv)Y(Carboxymethyl)D[Phe(3-Me)]V[Bip][Cit][Orn][dL][Dab][Cha]V[Thr(3ξ)]C[Dab][Aun]-OH; thioether N-14)
8 | 30.3 | Cc1cccc(C[C@@H]2NC(=O)[C@H](CC(=O)O)NC(=O)[C@H](Cc3ccc(OCC(=O)O)cc3)NC(=O)[C@H](C(C)O)NC(=O)CSC[C@@H](C(=O)N[C@@H](CCN)C(=O)NCCCCCCCCCCC(=O)O)NC(=O)[C@H](C(C)O)NC(=O)[C@H](C(C)(C)O)NC(=O)[C@H](CC3CCCCC3)NC(=O)[C@H](Cc3cnc[nH]3)NC(=O)[C@@H](CC(C)C)NC(=O)[C@H](CCCN)NC(=O)[C@H](Cc3ccc(O)cc3)NC(=O)[C@H](Cc3ccc(-c4ccccc4)cc3)NC(=O)[C@H](Cc3ccc(C(N)=O)cc3)NC2=O)c1 (stereo partly drawn) [Compound 3729] ({CH2CO}-[Thr(3ξ)]Y(Carboxymethyl)D[Phe(3-Me)][Phe(4-CONH2)][Bip]Y[Orn][dL]H[Cha][Val(3-OH)][Thr(3ξ)]C[Dab][Aun]-OH; thioether N-14)
9 | 40.8 | Cc1cccc(C[C@@H]2NC(=O)[C@H](CC(=O)O)NC(=O)[C@H](Cc3ccc(OCC(=O)O)cc3)NC(=O)[C@H](CCCNC(=N)N)NC(=O)CSC[C@@H](C(=O)N[C@H](CC(N)=O)C(=O)NCCCCCCCCCCC(=O)O)NC(=O)[C@H](C(C)O)NC(=O)[C@H](C(C)O)NC(=O)[C@H](CC3CCCCC3)NC(=O)[C@H](CCN)NC(=O)[C@@H](CC(C)C)NC(=O)[C@H](CCCN)NC(=O)[C@H](Cc3ccc(OCC(=O)O)cc3)NC(=O)[C@H](Cc3ccc(-c4ccccc4)cc3)NC(=O)[C@H](Cc3ccc(O)cc3)NC2=O)c1 (stereo partly drawn) [Compound 3524] ({CH2CO}-RY(Carboxymethyl)D[Phe(3-Me)]Y[Bip]Y(Carboxymethyl)[Orn][dL][Dab][Cha][Thr(3ξ)][Thr(3ξ)]C[dN][Aun]-OH; thioether N-14)
